The target in assay [1] is T1, Tubulin (Homo sapiens) (UniProt P68371+Q9H4B7+P0DPH7+P68366+Q13509+Q71U36+P04350+Q3ZCM7+P07437+P68363+Q9BQE3+Q6PEY2+Q13885+Q9BVA1+Q9BUF5). The experiment in a line: Inhibition of tubulin polymerization at 40 uM. It counts as protein-complex assay.
The target in assay [2] is T1, Tubulin (Homo sapiens). Description: Inhibition of tubulin polymerization at 20 uM. In kind it is protein-complex assay.
Assay [3] concerns the target Tubulin. Description: Inhibition of tubulin polymerization. In kind it is protein-complex assay, Homo sapiens.
The target of assay [4] is T1, Tubulin (Homo sapiens). The experiment in a line: Inhibition of tubulin polymerization at 30 uM. In kind it is protein-complex assay.
The target in assay [5] is T1, Tubulin (Homo sapiens). The experiment in a line: Inhibition of tubulin polymerization at 10 uM. It counts as protein-complex assay.

pIC50: −log10 of the molar value. Bounds are passed on as bounds.

On to `COc1cc2cc(OC)c1OCCCCCCOc1ccc(cc1)[C@H](O)[C@H]2O` (relative stereo), for which the inhibition (usually the change of the read-out against control, counted positive when it falls) in assay [1] amounted to 4%.

In turn, `COc1cc2cc(OC)c1OCCCCCCOc1ccc(cc1OC(C)=O)[C@H](OC(C)=O)[C@H]2OC(C)=O` (relative stereo) returned an inhibition in assay [1] of 2%. Consider `COc1cc2cc(OC)c1OCCCCCCn1ccc3cc(ccc31)[C@H](O)[C@H]2O`, for which the inhibition in assay [2] was 9%. The same measure, in the same setting: the same measure for `COc1cc2cc(OC)c1OCCCCCCn1ccc3cc(ccc31)[C@@H](OC(C)=O)[C@H]2OC(C)=O`: 9%.

`COc1cc2cc(OC)c1OCCCCCCOc1ccc(cc1O)/C=C\2`: the inhibition in assay [1] was 0%. Turning to `COc1cc2cc(OC)c1OCCCCCCn1ccc3cc(ccc31)[C@H](OC(C)=O)[C@H]2OC(C)=O`, the inhibition in assay [2] turned out to be 8%. Consider `COc1ccc([C@@H](O)[C@H](O)c2cc(OC)c(OC)c(OC)c2)cc1O`, for which the negative logarithm of the IC50 (pIC50) (in general, the negative decadic logarithm of the IC50, by convention in mol/L) in assay [3] was under 4.40. As for `COc1cc2cc(OC)c1OCCOCCOc1ccc(cc1)/C=C\2`, in assay [4], the inhibition amounted to 0%. As to `COc1cc2cc(OC)c1OCCOCCOc1ccc(cc1)[C@@H](O)[C@H]2O` (relative stereo), the inhibition in assay [1] was 0%.

In assay [3], `COc1ccc([C@@H]2OCO[C@H]2c2cc(OC)c(OC)c(OC)c2)cc1O` showed a pIC50 of 5.40.

Compound `COc1cc2cc(OC)c1OCCCCCCOc1ccc(cc1)[C@H](OC(C)=O)[C@H]2OC(C)=O` returned an inhibition in assay [1] of 0%. `COc1cc2cc(OC)c1OCCCCCCn1ccc3cc(ccc31)[C@@H](O)[C@H]2O`: the inhibition in assay [2] was 11%. In turn, `COc1cc2cc(OC)c1OCCOCCOc1ccc(cc1OC(C)=O)[C@H](OC(C)=O)[C@H]2OC(C)=O` (relative stereo) came in with an inhibition in assay [1] of 0%. In turn, `COc1ccc(/C=C\c2cc(OC)c(OC)c(OC)c2)cc1` showed a pIC50 in assay [3] of 5.66. On to `COc1cc2cc(OC)c1OCCOCCOc1ccc(cc1)[C@H](O)[C@H]2O`, for which, in assay [1], the inhibition worked out at 0%. Same read-out and setting: the value for `COc1cc2cc(OC)c1OCCOCCOc1ccc(cc1)[C@@H]1OC(C)(C)O[C@H]21` was 0%; that for `COc1cc2cc(OC)c1OCCCCCCOc1ccc(cc1)/C=C\2` was 60%; that for `COc1cc2cc(OC)c1OCCOCCOc1ccc(cc1O)[C@H](O)[C@H]2O` (relative stereo) was 1%. In assay [3], `COc1ccc(C[C@@H](O)c2cc(OC)c(OC)c(OC)c2)cc1O` [COMBRETASTATIN] had a pIC50 of 5.30. On the same count and under the same terms, the value for `COc1ccc([C@H](O)[C@@H](O)c2cc(OC)c(OC)c(OC)c2)cc1O` was 4.66. Regarding `COc1cc2cc(OC)c1OCCOCCOc1ccc(cc1OC(C)=O)[C@@H](OC(C)=O)[C@H]2OC(C)=O` (relative stereo), the inhibition in assay [1] was 0%. As to `COc1cc2cc(OC)c1OCCCCCCn1ccc3cc(ccc31)/C=C\2`, the inhibition in assay [5] is 19%.

`COc1cc2cc(OC)c1OCCOCCOc1ccc(cc1)[C@H](OC(C)=O)[C@H]2OC(C)=O` (relative stereo) returned an inhibition in assay [1] of 0%. Regarding `COc1cc2cc(OC)c1OCCOCCOc1ccc(cc1)[C@@H](OC(C)=O)[C@H]2OC(C)=O` (relative stereo), the inhibition in assay [1] stood at 0%. The same measure, in the same setting: the value for `COc1cc2cc(OC)c1OCCOCCOc1ccc(cc1O)[C@@H](O)[C@H]2O` (relative stereo) was 11%. `COc1ccc([C@H]2OCO[C@@H]2c2cc(OC)c(OC)c(OC)c2)cc1O` gave a pIC50 in assay [3] of under 4.30.

For the origin of these results see ChEMBL document CHEMBL1140525, “Conformationally restricted macrocyclic analogues of combretastatins” (Bioorg Med Chem Lett, 2007).
